In US20120238488A1, “COMPOUNDS AND METHODS FOR TREATING NEOPLASIA” (priority 2009, published 2012):
Where two headings read alike, the source gives them in different places.

Experiments:
[1] = test system: H160 (Lung); assay: SRB assay, H160; format: cell-based, human; conditions: 48 h; for TGI / GI50: H160, SRB; for CC50 / GI50: Homo sapiens; for CC50: read-out: LC50
Experimental: (§1) SRB assays were performed according to standard National Cancer Institute Guidelines. Briefly, human tumor cells from different cancer panels were seeded into 96 well plates in 100 μL (plating densities ranging from 5-40,000 cells/well depending on the doubling time of individual cell lines) in serum-containing media for twenty-four hours prior to the addition of the compounds to be assayed. After 24 hours, one plate of each cell line was fixed in situ with trichloroacetic acid (TCA). The fixed slides were used to determine the cell population for each cell line at the time of drug addition (Tz). Each compound to be tested was solubilized in DMSO and the desired concentration was then added to the medium and diluted serially 1:10 to provide a total of five or ten drug concentrations plus control (in a final volume of 200 μL). The starting dose before any dilution was 100 uM for all compounds.
(§2) Following drug addition, each culture was incubated for forty-eight hours. The assay was terminated with the addition of cold TCA. The supernatant was discarded, and the plates were washed with tap water and air dried. Sulforhodamine B (SRB) solution was then added to each well. After staining, the bound stain was solubilized and the absorbance was read on an automated plate reader at a wavelength of 515 nm.
(§3) Using the absorbance measurements [time zero, (Tz), control growth, (C), and test growth in the presence of drug at the ten concentration levels (Ti)], the percentage growth was calculated at each of the drug concentrations levels. Percentage growth inhibition was calculated as:
(§4) [(Ti−Tz)/(C−Tz)]×100 for concentrations for which Ti>/=Tz
(§5) [(Ti−Tz)/Tz]×100 for concentrations for which Ti<Tz.
(§6) Three dose response parameters were calculated for each experimental agent. Growth inhibition of 50% (GI50) was calculated from [(Ti−Tz)/(C−Tz)]×100=50, which was the drug concentration resulting in a 50% reduction in the net protein increase (as measured by SRB staining) in control cells during the drug. The drug concentration resulting in total growth inhibition (TGI) was calculated from Ti=Tz. The LC50 (concentration of drug resulting in a 50% reduction in the measured protein at the end of the drug treatment as compared to that at the beginning) indicating a net loss of cells following treatment was calculated from [(Ti−Tz)/Tz]×100=−50.
(§7) Values were calculated for each of these three parameters when the level of activity was reached; however, if the effect was not reached or was exceeded, the value for that parameter was expressed as greater or less than the maximum or minimum concentration tested.
(§8) Table 4 summarizes results characterizing the effects of compound Nos. 120, 12, 61, 1, and 56 on GI50, which measures the cell growth inhibitory power of the compound, TGI, which measures cytostatic effect (TGI) and LC50, which signifies cytotoxic effect. Each of these parameters in Table 4 was calculated in a sulforhodamine B (SRB) assay, which provides a colorimetric measure of a compound's anti-cancer activity. SRB assays were performed with compounds of the invention in 22 different cell lines (shaded in light gray in Table 4), which represent nine different tumor panels (lung, melanoma, ovary, prostate, CNS, breast, pancreas colon and renal). Ouabain and digoxin were used as controls. Paclitaxel was added as a non-Na^+K^+-ATPase inhibitor control.

[2] = test system: LOXIMVI (Melanoma); assay: SRB assay, LOXIMVI; format: cell-based, human; conditions: 48 h; for CC50 / GI50: Homo sapiens, LOX IMVI; for CC50: read-out: LC50; for GI50 / TGI: LOXIMVI, SRB
Experimental: as §1, §2, §3, §4, §5, §6, §7, §8

[3] = test system: IGROV1 (Ovary); assay: SRB assay, IGROV1; format: cell-based, human; conditions: for CC50 / GI50: Homo sapiens; for CC50: IGROV-1, 48 h, read-out: LC50; for GI50: IGROV-1; for GI50 / TGI: IGROV1, SRB, 48 h
Experimental: as §1, §2, §3, §4, §5, §6, §7, §8

[4] = test system: U251 (CNS); assay: SRB assay, U251; format: cell-based, human; conditions: for GI50 / CC50: Homo sapiens; for CC50: read-out: LC50
Experimental: as §1, §2, §3, §4, §5, §6, §7, §8

[5] = test system: MCF7 (Breast); assay: SRB assay, MCF7; format: cell-based, human; conditions: for CC50 / GI50: Homo sapiens; for CC50: MCF7, 48 h, read-out: LC50; for GI50 / TGI: MCF7, SRB, 48 h
Experimental: as §1, §2, §3, §4, §5, §6, §7, §8

[6] = test system: SU8686 (Pancreas); assay: SRB assay, SU8686; format: cell-based, human; conditions: for CC50 / GI50: Homo sapiens; for CC50: SU.86.86, 48 h, read-out: LC50; for GI50: SU.86.86; for GI50 / TGI: SU8686, SRB, 48 h
Experimental: as §1, §2, §3, §4, §5, §6, §7, §8

[7] = test system: HCT15 (Colon); assay: SRB assay, HCT15; format: cell-based, human; conditions: for TGI / GI50: HCT15, SRB, 48 h; for CC50 / GI50: Homo sapiens; for CC50: HCT-15, 48 h, read-out: LC50; for GI50: HCT-15
Experimental: as §1, §2, §3, §4, §5, §6, §7, §8

[8] = test system: 22 different cell lines, nine tumor panels (lung, melanoma, ovary, prostate, CNS, breast, pancreas colon and renal); assay: SRB assay, all tumor cell line panels (summary statements); format: cell-based, human; conditions: for GI50 action in all cell line panels tested (in words): SRB; for viability and/or cell proliferation of neoplastic cell lines: lung, breast, CNS, colon, prostate, ovary, pancreas, kidney and melanoma lines, including a multidrug resistant cell line
Experimental: as §1, §2, §3
Three dose response parameters were calculated for each experimental agent. […] The drug concentration resulting in total growth inhibition (TGI) was calculated from Ti=Tz. The LC50 (concentration of drug resulting in a 50% reduction in the measured protein at the end of the drug treatment as compared to that at the beginning) indicating a net loss of cells following treatment was calculated from [(Ti−Tz)/Tz]×100=−50.
Each of these parameters in Table 4 was calculated in a sulforhodamine B (SRB) assay, which provides a colorimetric measure of a compound's anti-cancer activity. SRB assays were performed with compounds of the invention in 22 different cell lines (shaded in light gray in Table 4), which represent nine different tumor panels (lung, melanoma, ovary, prostate, CNS, breast, pancreas colon and renal). […] Paclitaxel was added as a non-Na^+K^+-ATPase inhibitor control.

[9] = test system: HCT116 colon cancer, PC3 and DU145 prostate cancer cell lines; assay: MTT proliferation/viability assay; format: cell-based; conditions: 72 h, FIGS. 1A-1D, HCT116 only compound 120
Experimental: All assays were performed in triplicate.
The effect of the different compounds on the proliferation and viability of cancer cell lines was tested. Compound 120 was tested in one colon cancer cell line (HCT116), and compound Nos. 120, 12, 61, 1, and 56 were tested in two prostate cancer cell lines (PC3 and DU145). […] This colorimetric assay uses the reduction of MTT to formazan as a measure of metabolic activity. Untreated cells cultured in the presence of serum were used as a negative control.

[10] = test system: A549 xenografts (lung carcinoma); assay: A549 xenograft anti-tumor activity; format: in vivo, Nod/Scid mice; conditions: A549 xenografts, compound 56 20 mgk, paclitaxel 18 mgk
Experimental: All administrations were intraperitoneal.
At day 20 post inoculation (dpi), mean tumor volume was measured at 117.6 mm^3.
Compound 56 was administered intraperitoneallly using a [(QD×5;2) ×5] scheme. Paclitaxel, used as a positive control, was injected twice weekly for 5 cycles (Tuesday & Friday).

[11] = U-251, U251, SRB, 48 h, read-out: GI50

| SMILES | TGI [1] [µM] | CC50 [1] [µM] | GI50 [1] [µM] | CC50 [2] [µM] | GI50 [2] [µM] | TGI [2] [µM] | CC50 [3] [µM] | GI50 [3] [µM] | TGI [3] [µM] | CC50 ([4]; U-251, 48 h) [µM] | CC50 [5] [µM] | GI50 [5] [µM] | TGI [5] [µM] | CC50 [6] [µM] | TGI [7] [µM] | CC50 [7] [µM] | GI50 [7] [µM] | GI50 action in all cell line panels tested (in words) [8] | viability and/or cell proliferation of neoplastic cell lines [8] | inhibition of cell proliferation and viability (MTT) [9] | also measured |
| --- | --- | --- | --- | --- | --- | --- | --- | --- | --- | --- | --- | --- | --- | --- | --- | --- | --- | --- | --- | --- | --- |
| C[C@H]1O[C@@H](O[C@H]2[C@@H](O)C[C@H](O[C@H]3[C@@H](O)C[C@H](O[C@H]4CC[C@@]5(C)[C@H](CC[C@@H]6[C@@H]5C[C@@H](O)[C@]5(C)[C@@H](C7=CC(=O)OC7)CC[C@]65O)C4)O[C@@H]3C)O[C@@H]2C)C[C@H](O)[C@@H]1O [Digoxin, reference compound] | <0.08 | 0.3 | < 0.08 | > 100 | 0.08 | >100 | > 100 | 0.04 | 0.35 | 0.61 | 0.4 | < 0.08 | 0.1 | 0.63 | 0.06 | 0.16 | 0.03 |  |  |  | TGI [4]: 0.10 µM; GI50 ([4]; U-251, 48 h): 0.02 µM; GI50 [6]: 0.03 µM; TGI [6]: 0.09 µM |
| C[C@]12CCC(=NOCCN)C=C1CCC1C2CC[C@]2(C)C(=O)CCC12 (stereo partly drawn) [Compound 12, (10R,13S)-3-(2-aminoethoxyimino)-10,13-dimethyl-2,3,7,8,9,10,11,12,13,14,15,16-dodecahydro-1H-cyclopenta[a]phenanthren-17(6H)-one] | 5.86 | 8.73 | 2.99 | ≥ 117 | 0.66 | 24.06 | 68.4 | 5.37 | 12.38 | 8.61 | 9.47 | 3.79 | 6.63 |  | 6.70 | 9.61 | 3.79 | mostly single-digit micromolar GI50 action | reduced the viability and/or cell proliferation | strong inhibition of cell proliferation and viability | GI50 [4, 11]: 3.09 µM; TGI ([4]; U251, SRB, 48 h): 5.85 µM |
| C[C@]12CCC(=NOC3CCNC3)C=C1CCC1C2CC[C@]2(C)C(=O)CCC12 (stereo partly drawn) [Compound 61, (10R,13S)-10,13-dimethyl-3-(pyrrolidin-3-yloxyimino)-2,3,7,8,9,10,11,12,13,14,15,16-dodecahydro-1H-cyclopenta[a]phenanthren-17(6H)-one] |  |  |  |  |  |  |  |  |  |  |  |  |  |  |  |  |  | nanomolar GI50 action | reduced the viability and/or cell proliferation | strong inhibition of cell proliferation and viability |  |
| CC(=O)O[C@H]1C(=O)[C@@]2(C)[C@H]([C@H](OC(=O)c3ccccc3)[C@]3(O)C[C@H](OC(=O)[C@H](O)[C@@H](NC(=O)c4ccccc4)c4ccccc4)C(C)=C1C3(C)C)[C@]1(OC(C)=O)CO[C@@H]1C[C@@H]2O [Paclitaxel, reference compound] | 3.7685 | > 10 | < 0.1 | 5.18 | < 0.001 | 0.288 | 10.6 | 0.001 | 3.305 | 6.73 | > 10 | < 0.1 | >10 | 16.5 | 0.852 | 12.3 | 0.053 |  |  |  | GI50 [4, 11]: < 0.001 µM; TGI ([4]; U251, SRB, 48 h): 1.745 µM; GI50 [6]: 0.008 µM; TGI [6]: 7.927 µM; DT/DC ([10]; day 24, intraperitoneal): −46,68%; post mortem analysis on excised tumors: tumor growth inhibition [10]: statistical significant tumor growth inhibition |
| C[C@]12CCC(=NOCCN)CC1CCC1C2CC[C@]2(C)C(=O)CCC12 (stereo partly drawn) [Compound 1, (10S,13S)-3-(2-aminoethoxyimino)-10,13-dimethyltetradecahydro-1H-cyclopenta[a]phenanthren-17(2H)-one] |  |  |  |  |  |  |  |  |  |  |  |  |  |  |  |  |  | nanomolar GI50 action | reduced the viability and/or cell proliferation | strong inhibition of cell proliferation and viability |  |
